{"source": "patent US8426447B2", "about": "“Spiro-tricyclic ring compounds as beta-secretase modulators and methods of use” (Amgen Inc., priority 2008, dated 2013)", "key": {"BACE1 [1]": {"target": "T1, BACE1 (Homo sapiens, UniProt P56817)", "T1 sequence (P56817 46-501, species assumed)": "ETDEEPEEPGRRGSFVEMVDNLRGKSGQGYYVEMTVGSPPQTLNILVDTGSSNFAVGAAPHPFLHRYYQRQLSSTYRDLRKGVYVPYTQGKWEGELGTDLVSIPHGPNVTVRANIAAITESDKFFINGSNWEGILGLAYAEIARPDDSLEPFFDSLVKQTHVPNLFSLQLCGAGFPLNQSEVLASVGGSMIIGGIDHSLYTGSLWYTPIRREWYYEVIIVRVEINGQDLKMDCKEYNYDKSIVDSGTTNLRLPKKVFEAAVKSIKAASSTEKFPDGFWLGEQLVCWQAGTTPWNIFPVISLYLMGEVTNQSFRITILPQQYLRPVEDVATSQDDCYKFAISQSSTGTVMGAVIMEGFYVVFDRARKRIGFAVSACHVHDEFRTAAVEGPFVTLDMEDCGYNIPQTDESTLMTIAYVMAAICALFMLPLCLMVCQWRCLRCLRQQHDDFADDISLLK", "assay": "In Vitro Enzymatic BACE FRET (Fluorescence Resonance Energy Transfer) Assay", "type": "biochemical", "experimental": "In Vitro Enzymatic BACE FRET (Fluorescence Resonance Energy Transfer) Assay (Enzyme Assay Data in the Example Tables I, II, III & IV) The assay buffer used in this screen is 0.05 M acetate, pH 4.2, 10% DMSO final, 100 uM genapol (which is a nonionic detergent, below its Critical Micelle Concentration). […] This assay is effectively started by the addition of FRET substrate (50 nM) and the combination is incubated for one hour. The FRET assay is terminated with by addition of Tris buffer, which raises the pH to neutrality, and the fluorescence is determined. The FRET substrate is a peptide with commercially available fluorophore and quencher, on opposite sides of the BACE cleavage site. […]"}, "BACE1 [2]": {"target": "T1, BACE1", "assay": "In Vitro BACE Cell-based Assay (HEK cell assay): Aβ40 in conditioned medium of cells stably expressing Amyloid Precursor Protein, sandwich ELISA", "experimental": "In Vitro BACE Cell-based Assay\nThe cell-based assay measures inhibition or reduction of Aβ40 in conditioned medium of test compound treated cells expressing amyloid precursor protein.\nCells stably expressing Amyloid Precursor Protein (APP) were plated at a density of 40K cells/well in 96 well plates (Costar). The cells were cultivated for 24 hours at 37° C. and 5% CO2 in DMEM supplemented with 10% FBS. The test compounds were then added to cells in 10-point dose response concentrations with the starting concentration being either 100 μM or 10 μM. The compounds were diluted from stock solutions in DMSO and the final DMSO concentration of the test compounds on cells was 0.1%. After 24 h of incubation with the test compounds the supernatant conditioned media was collected and the Aβ 40 levels were determined using a sandwich ELISA. The IC50 of the compound was calculated from the percent of control or percent inhibition of Aβ 40 as a function of the concentration of the test compound.\nThe sandwich ELISA to detect Aβ 40 was performed in 96 well microtiter plates, which were pre-treated with goat anti-rabbit IgG (Pierce). The capture and detecting antibody pair that were used to detect Aβ 40 from cell supernatants were affinity purified pAb40 (Biosource) and biotinylated 6E10 (Signet Labs Inc.), respectively. The optimal concentration for the pAb40 antibody was 3 μg/ml in Superblock/TBS (Pierce) that was supplemented with 0.05% Tween 20 (Sigma).\nCellular supernatants were incubated with the capture antibody for 3 h at 4° C., followed by 3 wash steps in TBS-tween (0.05%). The detecting antibody incubation was for 2 h at 4° C., again followed by the wash steps as described previously. The final readout of the ELISA is Time-Resolved Fluorescence (counts per minute) using Delfia reagents Streptavidin-Europium and Enhancement solutions (Perkin Elmer) and the Victor 2 multilabel counter (Perkin Elmer)."}, "[3]": {"conditions": "Table IV, class symbols, read-out: BACE1 FRET assay"}, "[4]": {"conditions": "Table IV, class symbols, read-out: HEK cell assay"}, "[5]": {"conditions": "HEK cells, read-out: HEK cell assay"}, "[6]": {"conditions": "in vitro BACE FRET enzyme assay, IC50 class symbols, read-out: BACE1 FRET assay"}, "[7]": {"conditions": "HEK cell-based assay, Aβ40 in conditioned medium, IC50 class symbols, read-out: HEK cell assay"}}}
{"compound": "CC(C)(C)COc1ccc2c(c1)[C@]1(COC(N)=N1)c1cc(-c3ccc(C#N)cc3)ccc1O2", "note": "[compound 972]", "values": [{"measurement": "IC50", "setting": "BACE1 [1]; read-out: BACE1 FRET assay", "value": "0.1 to 1", "unit": "µM"}, {"measurement": "IC50", "setting": "BACE1 [2]; read-out: HEK cell assay", "value": "> 5", "unit": "µM"}]}
{"compound": "COc1ccc2c(c1)[C@]1(COC(N)=N1)c1cc(-c3cccc4cccnc34)ccc1O2", "note": "[compound 590]", "values": [{"measurement": "IC50", "setting": "BACE1 [1]; [3]", "value": "1 to 5", "unit": "µM"}, {"measurement": "IC50", "setting": "BACE1 [2]; [4]", "value": "1 to 5", "unit": "µM"}]}
{"compound": "CC(C)(C)COc1ccc2c(c1)[C@]1(COC(N)=N1)c1cc(C3CCCCO3)ccc1O2", "note": "(stereo partly shown) [compound 656]", "values": [{"measurement": "IC50", "setting": "BACE1 [1]; [3]", "value": "< 0.1", "unit": "µM"}, {"measurement": "IC50", "setting": "BACE1 [2]; [4]", "value": "0.1 to 1", "unit": "µM"}]}
{"compound": "CC(C)(C)OC(=O)n1c(-c2ccc3c(c2)[C@@]2(COC(N)=N2)c2ccccc2O3)cc2ccccc21", "note": "[compound 568]", "values": [{"measurement": "IC50", "setting": "BACE1 [1]; [3]", "value": "> 5", "unit": "µM"}, {"measurement": "IC50", "setting": "BACE1 [2]; [4]", "value": "> 5", "unit": "µM"}]}
{"compound": "CC(C)C[C@@H]1CN(c2ccc3c(c2)[C@]2(COC(N)=N2)c2cc(-c4cncnc4)ccc2O3)CCO1", "note": "[compound 422]", "values": [{"measurement": "IC50", "setting": "BACE1 [1]; read-out: BACE1 FRET assay", "value": "0.1 to 1", "unit": "µM"}, {"measurement": "IC50", "setting": "BACE1 [2]; [5]", "value": "0.1 to 1", "unit": "µM"}]}
{"compound": "COC(C)(C)C#Cc1cnc2c(c1)[C@@]1(COC(N)=N1)c1cc(-c3ccc(F)nc3)ccc1O2", "note": "[compound 723]", "values": [{"measurement": "IC50", "setting": "BACE1 [1]; read-out: BACE1 FRET assay", "value": "0.1 to 1", "unit": "µM"}, {"measurement": "IC50", "setting": "BACE1 [2]; read-out: HEK cell assay", "value": "1 to 5", "unit": "µM"}]}
{"compound": "CC(C)(C)COc1ccc2c(c1)[C@]1(COC(N)=N1)c1cc(C3CCOCC3)ccc1O2", "note": "[compound 747]", "values": [{"measurement": "IC50", "setting": "BACE1 [1]; read-out: BACE1 FRET assay", "value": "0.1 to 1", "unit": "µM"}, {"measurement": "IC50", "setting": "BACE1 [2]; read-out: HEK cell assay", "value": "1 to 5", "unit": "µM"}]}
{"compound": "CC(C)(C)COc1ccc2c(c1)[C@@]1(COC(N)=N1)c1cc(-c3cccnc3F)cnc1O2", "note": "[compound 952]", "values": [{"measurement": "IC50", "setting": "BACE1 [1]; read-out: BACE1 FRET assay", "value": "< 0.1", "unit": "µM"}, {"measurement": "IC50", "setting": "BACE1 [2]; read-out: HEK cell assay", "value": "< 0.1", "unit": "µM"}]}
{"compound": "NC1=N[C@@]2(CO1)c1cc(-c3cccnc3F)ccc1Oc1ncccc12", "note": "[compound 570]", "values": [{"measurement": "IC50", "setting": "BACE1 [1]; [3]", "value": "< 0.1", "unit": "µM"}, {"measurement": "IC50", "setting": "BACE1 [2]; [4]", "value": "0.1 to 1", "unit": "µM"}]}
{"compound": "CC(C)(C)COc1ccc2c(c1)[C@]1(COC(N)=N1)c1cc(-c3ccc(C#N)nc3)ccc1O2", "note": "[compound 882]", "values": [{"measurement": "IC50", "setting": "BACE1 [1]; [3]", "value": "< 0.1", "unit": "µM"}, {"measurement": "IC50", "setting": "BACE1 [2]; [4]", "value": "1 to 5", "unit": "µM"}]}
{"compound": "NC1=N[C@@]2(CO1)c1cc(-c3cccnc3)ccc1Oc1ncc(C3=CCOCC3)cc12", "note": "[compound 664]", "values": [{"measurement": "IC50", "setting": "BACE1 [1]; read-out: BACE1 FRET assay", "value": "< 0.1", "unit": "µM"}, {"measurement": "IC50", "setting": "BACE1 [2]; read-out: HEK cell assay", "value": "< 0.1", "unit": "µM"}]}
{"compound": "Cn1cc(-c2cc3c(cn2)Oc2ccc(-c4cccnc4F)cc2[C@@]32COC(N)=N2)cn1", "note": "[compound 333]", "values": [{"measurement": "IC50", "setting": "BACE1 [1]; [6]", "value": "< 0.1", "unit": "µM"}, {"measurement": "IC50", "setting": "BACE1 [2]; [7]", "value": "< 0.1", "unit": "µM"}]}
{"compound": "NC1=N[C@@]2(CO1)c1ccccc1Oc1ccc(-c3cc(F)cnc3Cl)cc12", "note": "[compound 619]", "values": [{"measurement": "IC50", "setting": "BACE1 [1]; [3]", "value": "1 to 5", "unit": "µM"}, {"measurement": "IC50", "setting": "BACE1 [2]; [4]", "value": "0.1 to 1", "unit": "µM"}]}
{"compound": "COc1ccc(-c2ccc3c(c2)[C@@]2(COC(N)=N2)c2cc(OCC(C)(C)C)ccc2O3)c(OC)n1", "note": "[compound 909]", "values": [{"measurement": "IC50", "setting": "BACE1 [1]; [3]", "value": "0.1 to 1", "unit": "µM"}, {"measurement": "IC50", "setting": "BACE1 [2]; [4]", "value": "> 5", "unit": "µM"}]}
{"compound": "CC1(C)C[C@H](c2cc3c(cn2)Oc2ccc(-c4cccnc4F)cc2[C@@]32COC(N)=N2)CCO1", "note": "[compound 432]", "values": [{"measurement": "IC50", "setting": "BACE1 [1]; read-out: BACE1 FRET assay", "value": "< 0.1", "unit": "µM"}, {"measurement": "IC50", "setting": "BACE1 [2]; [5]", "value": "< 0.1", "unit": "µM"}]}
{"compound": "COC(C)(C)C#Cc1cnc2c(c1)[C@@]1(COC(N)=N1)c1cc(-c3cccnc3)ccc1O2", "note": "[compound 719]", "values": [{"measurement": "IC50", "setting": "BACE1 [1]; read-out: BACE1 FRET assay", "value": "0.1 to 1", "unit": "µM"}, {"measurement": "IC50", "setting": "BACE1 [2]; read-out: HEK cell assay", "value": "0.1 to 1", "unit": "µM"}]}
{"compound": "CCCOc1ccc2c(c1)C1(COC(N)=N1)c1cc(-c3cncnc3)ccc1O2", "note": "(stereo not shown) [Example 9, 2′-propoxy-7′-(5-pyrimidinyl)spiro[1,3-oxazole-4,9′-xanthen]-2-amine]", "values": [{"measurement": "IC50", "setting": "BACE1 [1]; Table 1, read-out: BACE1 FRET assay", "value": "< 0.1", "unit": "µM"}, {"measurement": "IC50", "setting": "BACE1 [2]; Table 1, Aβ40, 24 h incubation, read-out: HEK cell assay", "value": "0.1 to 1", "unit": "µM"}]}
{"compound": "NC1=N[C@@]2(CO1)c1cc(-c3cccnc3)ccc1Oc1ccc(N3CCOCC3)nc12", "note": "[compound 334]", "values": [{"measurement": "IC50", "setting": "BACE1 [1]; [6]", "value": "0.1 to 1", "unit": "µM"}, {"measurement": "IC50", "setting": "BACE1 [2]; [7]", "value": "0.1 to 1", "unit": "µM"}]}
{"compound": "Cc1cc(-c2cc3c(cn2)Oc2ccc(-c4cccnc4F)cc2[C@@]32COC(N)=N2)ccn1", "note": "[compound 429]", "values": [{"measurement": "IC50", "setting": "BACE1 [1]; BACE1 FRET assay (uM)", "value": "< 0.1", "unit": "µM"}, {"measurement": "IC50", "setting": "BACE1 [2]; HEK cell assay (uM), HEK cells", "value": "< 0.1", "unit": "µM"}]}
{"compound": "COC(C)(C)C#Cc1ccc2c(c1)[C@@]1(COC(N)=N1)c1cc(-c3ccc(C)cc3)cnc1O2", "note": "[compound 577]", "values": [{"measurement": "IC50", "setting": "BACE1 [1]; [3]", "value": "< 0.1", "unit": "µM"}, {"measurement": "IC50", "setting": "BACE1 [2]; [4]", "value": "< 0.1", "unit": "µM"}]}
{"compound": "COC(C)(C)C#Cc1ccc2c(c1)C1(COC(N)=N1)c1cc(C#CC(C)(C)OC)ccc1O2", "note": "[Example 119, 2′,7′-bis(3-methoxy-3-methylbut-1-ynyl)-5H-spiro[oxazole-4,9′-xanthen]-2-amine]", "values": [{"measurement": "IC50", "setting": "BACE1 [1]; Table III, IC50's in uM ranges, read-out: BACE1 FRET assay", "value": "0.1 to 1", "unit": "µM"}, {"measurement": "IC50", "setting": "BACE1 [2]; Table III, IC50's in uM ranges, read-out: HEK cell assay", "value": "0.1 to 1", "unit": "µM"}]}
{"compound": "CC(C)(C)CC(=O)c1ccc2c(c1)[C@@]1(CSC(N)=N1)c1cc(-c3cncnc3)ccc1O2", "note": "[compound 762]", "values": [{"measurement": "IC50", "setting": "BACE1 [1]; read-out: BACE1 FRET assay", "value": "0.1 to 1", "unit": "µM"}, {"measurement": "IC50", "setting": "BACE1 [2]; read-out: HEK cell assay", "value": "1 to 5", "unit": "µM"}]}
{"compound": "NC1=N[C@@]2(CO1)c1cc(-c3cncnc3)ccc1Oc1ccc(-c3cccc(C(F)(F)F)c3)cc12", "note": "[compound 809]", "values": [{"measurement": "IC50", "setting": "BACE1 [1]; [3]", "value": "< 0.1", "unit": "µM"}, {"measurement": "IC50", "setting": "BACE1 [2]; [4]", "value": "0.1 to 1", "unit": "µM"}]}
